pIC50: −log10 of the molar value.
Tested on: MG63 osteosarcoma cells
Test: In vitro MG63 osteosarcoma proliferation assay, Test (c)
Type: cell-based
Conditions: Homo sapiens, MG-63, BrdU, 72 hours, read-out: IC50 versus MG63 osteosarcoma proliferation
Experimental: This assay determined the ability of a test compound to inhibit the proliferation of MG63 osteosarcoma cells (ATCC CCL 1427):
MG63 cells were seeded at 1.5×10^3 cells per well into 96-well clear tissue culture-treated assay plates (Corning Life Sciences; Catalogue No. 3595) to which had been added 60 μl per well of test medium comprising DMEM without phenol red, 1% charcoal-stripped FCS and 2 mM glutamine and the cells were incubated overnight at 37° C. with 7.5% CO2.
Test compounds were solubilised in DMSO to provide a 10 mM stock solution. Aliquots of the stock solution were diluted with the test medium described above and 20 μl aliquots of each dilution were added to appropriate wells. Serial dilutions were made to give a range of test concentrations. […]
BrdU labelling reagent (Roche Diagnostics Ltd., Lewes, East Sussex, UK; Catalogue No. 647 229) was diluted by a factor of 1:100 in DMEM medium containing 1% charcoal stripped FCS and aliquots (10 μl) were added to each well to give a final concentration of 10 μM. […] Aqueous sulphuric acid (1M; 50 μl) was added to the appropriate wells to stop any further reaction and the absorbance of the wells was measured at 450 nm. The extent of inhibition of cellular proliferation at a range of concentrations of each test compound was determined and an anti-proliferative IC50 value was derived.

pIC50: ~7.40
Structure (SMILES): COc1cc2ncnc(Oc3cnn(CC(=O)Nc4cccc5c4OCO5)c3)c2cc1OC [Example 2, N-(2,3-methylenedioxyphenyl)-2-[4-(6,7-dimethoxyquinazolin-4-yloxy)pyrazol-1-yl]acetamide]

Reference: patent US20090036474A1, “Quinazoline derivatives for use against cancer” (priority 2004, published 2009)
